# Assay results from ChEMBL document CHEMBL2375337, “Synthesis and anti-H5N1 activity of chiral gossypol derivatives and its analogs implicated by a viral entry blocking mechanism” (Bioorg Med Chem Lett, 2013).
# Where “and” joins values, the source holds several entries; their conditions need not be identical. Equal entries are not always repeated. Calls of active or inactive are those of the source. The calls are words filed in the database; no cut-off is given here.
# Experiments:
# H5N1 subtype [1] = assay: Antiviral activity against H5N1 subtype infected in MDCK cells; assay type: functional, organism-based; settings: Influenza A virus
# [2] = Selectivity index, ratio of cytotoxicity against MDCK cells to antiviral activity against H5N1 subtype; assay type: toxicity, cell-based; settings: dog, read-out: Selectivity Index
# [3] = Selectivity index, ratio of CC50 for MDCK cells to IC50 for Influenza A virus (A/Vietnam/1194/2004(H5N1)); assay type: functional
# [4] = (§1) Cytotoxicity against MDCK cells by MTT assay; assay type: cell-based, Canis lupus familiaris; settings: dog, MDCK cells
# Influenza A virus [5] = assay: Antiviral activity against Influenza A virus (A/Vietnam/1194/2004(H5N1)) infected in MDCK cells by plaque reduction assay; assay type: functional, organism-based
# H5N1 subtype [6] = assay: Inhibition of H5N1 subtype hemagglutinin adsorption into chicken RBC at 100 ug/mL
# Influenza A virus [7] = assay: Antiviral activity against Influenza A virus (A/Vietnam/1194/2004(H5N1)) infected in MDCK cells assessed as inhibition of viral entry at 20 uM treated 2 hrs prior to infection; assay type: functional, organism-based
# Influenza A virus [8] = assay: Antiviral activity against Influenza A virus (A/Vietnam/1194/2004(H5N1)) infected in MDCK cells assessed as inhibition of viral entry at 20 uM treated 2 hrs post infection; assay type: functional, organism-based
# Influenza A virus [9] = assay: Antiviral activity against Influenza A virus (A/Vietnam/1194/2004(H5N1)) infected in MDCK cells assessed as inhibition of viral entry at 20 uM treated at the time of infection; assay type: functional, organism-based
# H5N1 subtype [10] = assay: Inhibition of H5N1 subtype neuraminidase up to 20 uM
# MDCK = assay: as §1; assay type: cell-based, Canis lupus familiaris; settings: dog, mdck
# [11] = Influenza A virus, MDCK, read-out: IC50
SMILES,Ratio CC50/IC50 [3],CC50 [4],"IC50 (Influenza A virus [5]; mdck, read-out: IC50)",CC50 (MDCK),further results
COc1c(OC)c(C=O)c2c(OC)c(-c3c(C)cc4c(C(C)C)c(OC)c(OC)c(C=O)c4c3OC)c(C)cc2c1C(C)C,,,,,IC50 (H5N1 subtype [1]): 103 µM; selectivity ratio [2]: > 0.54
CC(=O)Oc1c(OC(C)=O)c(C(=O)O)c2c(OC(C)=O)c(-c3c(C)cc4c(C(C)C)c(OC(C)=O)c(OC(C)=O)c(C(=O)O)c4c3OC(C)=O)c(C)cc2c1C(C)C,18.22 and 12.01,41.5 µM,2.28 µM,,IC50 (Influenza A virus [5]; [11]): 3.46 µM; IC50 (H5N1 subtype [1]): 2.98 µM; selectivity ratio [2]: > 8.7
Cc1cc2c(c(O)c1-c1c(C)cc3c(c1O)/C(=C/N[C@@H]1[C@@H](O)[C@H](O)[C@@H](CO)O[C@H]1O)C(=O)C(O)=C3C(C)C)/C(=C/N[C@@H]1[C@@H](O)[C@H](O)[C@@H](CO)O[C@H]1O)C(=O)C(O)=C2C(C)C,,21.8 µM,,,IC50 (Influenza A virus [5]; mdck): Not Active
COc1c(OC)c(C(=O)O)c2c(OC)c(-c3c(C)cc4c(C(C)C)c(OC)c(OC)c(C(=O)O)c4c3OC)c(C)cc2c1C(C)C,,,,,IC50 (H5N1 subtype [1]): 158 µM; selectivity ratio [2]: > 0.33
Cc1cc2c(C(C)C)c(O)c(O)c(C(=O)O)c2c(O)c1-c1c(C)cc2c(C(C)C)c(O)c(O)c(C(=O)O)c2c1O,18.62 and 15.82,60.6 µM,1.95 µM,36.3 µM,inhibition (H5N1 subtype [6]): inactive; inhibition (Influenza A virus [7]): inactive; inhibition (Influenza A virus [8]): inactive; inhibition (Influenza A virus [9]): inactive; inhibition (H5N1 subtype [10]): inactive; IC50 (Influenza A virus [5]; [11]): 3.83 µM; IC50 (H5N1 subtype [1]): 2.37 µM; selectivity ratio [2]: 10.5
Cc1cc2c(c(O)c1-c1c(C)cc3c(c1O)/C(=C/N[C@@H](C)C(=O)[O-])C(=O)C(O)=C3C(C)C)/C(=C/N[C@@H](C)C(=O)[O-])C(=O)C(O)=C2C(C)C.[Na+].[Na+] (stereo in doubt; (+)-5b),100.72,,0.47 µM,47.3 µM,
Cc1cc2c(c(O)c1-c1c(C)cc3c(c1O)/C(=C/N[C@@H](C)C(=O)O)C(=O)C(O)=C3C(C)C)/C(=C/N[C@@H](C)C(=O)O)C(=O)C(O)=C2C(C)C (stereo in doubt; (+)-5b),,,,,inhibition (H5N1 subtype [6]): inactive; inhibition (Influenza A virus [7]): inactive; inhibition (Influenza A virus [8]): inactive; inhibition (Influenza A virus [9]): inactive; inhibition (H5N1 subtype [10]): inactive
Cc1cc2c(c(O)c1-c1c(C)cc3c(c1O)/C(=C/N[C@H](C(=O)[O-])C(C)C)C(=O)C(O)=C3C(C)C)/C(=C/N[C@H](C(=O)[O-])C(C)C)C(=O)C(O)=C2C(C)C.[Na+].[Na+] (stereo in doubt; (+)-6b),34.5,,1.27 µM,43.8 µM,
Cc1cc2c(c(O)c1-c1c(C)cc3c(c1O)/C(=C/N[C@@H](Cc1c[nH]c4ccccc14)C(=O)[O-])C(=O)C(O)=C3C(C)C)/C(=C/N[C@@H](Cc1c[nH]c3ccccc13)C(=O)[O-])C(=O)C(O)=C2C(C)C.[Na+].[Na+] (stereo in doubt; (+)-7b),142.6,,0.25 µM,35.6 µM,
CC[C@H](C)[C@H](N/C=C1\C(=O)C(O)=C(C(C)C)c2cc(C)c(-c3c(C)cc4c(c3O)/C(=C/N[C@H](C(=O)[O-])[C@@H](C)CC)C(=O)C(O)=C4C(C)C)c(O)c21)C(=O)[O-].[Na+].[Na+] (stereo in doubt; (+)-8b),132.03,,0.32 µM,42.2 µM,
Cc1cc2c(c(O)c1-c1c(C)cc3c(c1O)/C(=C/NC(C)(C)C(=O)[O-])C(=O)C(O)=C3C(C)C)/C(=C/NC(C)(C)C(=O)[O-])C(=O)C(O)=C2C(C)C.[Na+].[Na+] (stereo in doubt; (+)-9b),51.11,,0.89 µM,45.5 µM,
COC(=O)[C@H](C)N/C=C1\C(=O)C(O)=C(C(C)C)c2cc(C)c(-c3c(C)cc4c(c3O)/C(=C/N[C@@H](C)C(=O)OC)C(=O)C(O)=C4C(C)C)c(O)c21 (stereo in doubt; (+)-10b),50.94,,0.95 µM,48.4 µM,
COC(=O)[C@H](Cc1c[nH]c2ccccc12)N/C=C1\C(=O)C(O)=C(C(C)C)c2cc(C)c(-c3c(C)cc4c(c3O)/C(=C/N[C@@H](Cc3c[nH]c5ccccc35)C(=O)OC)C(=O)C(O)=C4C(C)C)c(O)c21 (stereo in doubt; (+)-11b),22.68,,1.6 µM,36.3 µM,
Cc1cc2c(c(O)c1-c1c(C)cc3c(c1O)/C(=C/N[C@@H](C)C(=O)[O-])C(=O)C(O)=C3C(C)C)/C(=C/N[C@@H](C)C(=O)[O-])C(=O)C(O)=C2C(C)C.[Na+].[Na+] (stereo in doubt; (-)-5a),>44.24,> 47.3 µM,1.07 µM,,
Cc1cc2c(c(O)c1-c1c(C)cc3c(c1O)/C(=C/N[C@@H](C)C(=O)O)C(=O)C(O)=C3C(C)C)/C(=C/N[C@@H](C)C(=O)O)C(=O)C(O)=C2C(C)C (stereo in doubt; (-)-5a),,,,,inhibition (H5N1 subtype [6]): inactive; inhibition (Influenza A virus [7]): inactive; inhibition (Influenza A virus [8]): inactive; inhibition (Influenza A virus [9]): inactive; inhibition (H5N1 subtype [10]): inactive
Cc1cc2c(c(O)c1-c1c(C)cc3c(c1O)/C(=C/N[C@H](C(=O)[O-])C(C)C)C(=O)C(O)=C3C(C)C)/C(=C/N[C@H](C(=O)[O-])C(C)C)C(=O)C(O)=C2C(C)C.[Na+].[Na+] (stereo in doubt; (-)-6a),>16.66,> 43.8 µM,2.63 µM,,
Cc1cc2c(c(O)c1-c1c(C)cc3c(c1O)/C(=C/N[C@@H](Cc1c[nH]c4ccccc14)C(=O)[O-])C(=O)C(O)=C3C(C)C)/C(=C/N[C@@H](Cc1c[nH]c3ccccc13)C(=O)[O-])C(=O)C(O)=C2C(C)C.[Na+].[Na+] (stereo in doubt; (-)-7a),>67.26,> 35.6 µM,0.53 µM,,
CC[C@H](C)[C@H](N/C=C1\C(=O)C(O)=C(C(C)C)c2cc(C)c(-c3c(C)cc4c(c3O)/C(=C/N[C@H](C(=O)[O-])[C@@H](C)CC)C(=O)C(O)=C4C(C)C)c(O)c21)C(=O)[O-].[Na+].[Na+] (stereo in doubt; (-)-8a),>58.68,> 42.2 µM,0.72 µM,,
Cc1cc2c(c(O)c1-c1c(C)cc3c(c1O)/C(=C/NC(C)(C)C(=O)[O-])C(=O)C(O)=C3C(C)C)/C(=C/NC(C)(C)C(=O)[O-])C(=O)C(O)=C2C(C)C.[Na+].[Na+] (stereo in doubt; (-)-9a),31.96,50.5 µM,,,IC50 (Influenza A virus [5]; [11]): 1.58 µM
COC(=O)[C@H](C)N/C=C1\C(=O)C(O)=C(C(C)C)c2cc(C)c(-c3c(C)cc4c(c3O)/C(=C/N[C@@H](C)C(=O)OC)C(=O)C(O)=C4C(C)C)c(O)c21 (stereo in doubt; (-)-10a),>25.2,> 48.4 µM,1.92 µM,,
COC(=O)[C@H](Cc1c[nH]c2ccccc12)N/C=C1\C(=O)C(O)=C(C(C)C)c2cc(C)c(-c3c(C)cc4c(c3O)/C(=C/N[C@@H](Cc3c[nH]c5ccccc35)C(=O)OC)C(=O)C(O)=C4C(C)C)c(O)c21 (stereo in doubt; (-)-11a),>10.77,> 36.3 µM,3.37 µM,,
NC12CC3CC(CC(C3)C1)C2 [AMANTADINE],>57.39,> 220 µM,,,IC50 (Influenza A virus [5]; [11]): 3.84 µM; IC50 (H5N1 subtype [1]): 3.84 µM; selectivity ratio [2]: > 57.4
Cc1cc2c(C(C)C)c(O)c(O)c(C=O)c2c(O)c1-c1c(C)cc2c(C(C)C)c(O)c(O)c(C=O)c2c1O [GOSSYPOL],,35.4 µM,3.82 µM and 1.87 µM,,inhibition (H5N1 subtype [6]): inactive; inhibition (Influenza A virus [7]): inactive; inhibition (Influenza A virus [8]): inactive; inhibition (Influenza A virus [9]): inactive; inhibition (H5N1 subtype [10]): inactive; IC50 (H5N1 subtype [1]): 2.14 µM; selectivity ratio [2]: 1.65
